Laboratory results: publication PMC10140010 (Investigational New Drugs, 2023)
“And” between values parts separate entries of the source, which are not always exact repeats. Identical values can stand only once. Values belong to the molecule of their own block, whether it stands above or below them.

Columns and labels:
[1] = test system: LU-01-0015 (HIP-ALK) patient derived lung-tumor xenografts; assay: LU-01-0015 patient-derived xenograft model (tumor volume, body weight); assay type: in vivo, BALB/c nude mice; settings: LU-01-0015 and NCI-H3122 xenograft models, all P < 0.05
Method: Female BALB/c nude mice (4–6 weeks old) were provided by Shanghai Sipple-Bikai Laboratory Animal Co., Ltd. and Beijing Vital River Laboratory Animal Technology Co., Ltd. The mice were housed in a specific pathogen-free environment under a 12 h light/dark cycle, and had free access to sterile animal feed and water.
PDX and CDX models were used for in vivo studies. Patient-derived tumors tissues were divided into about 30 mm^3 and transplanted into the right dorsal subcutis. Treatment began when the tumor size reached to 200 mm^3. The mice were randomly assignied into the corresponding dosing groups (9 mice in each group). Drugs were deliverd via daily oral for 4 weeks. Tumor size was measured periodically using a digital caliper (Cal Pro, Sylvac, Switzerland), and tumor volume was calculated as 0.5 × length × width^2. For more detailed information, please refer to Supplementary materials. All procedures and protocols of xenograft models were approved by the Institutional Animal Care and Use Committee of WuXi AppTec.
Patient-derived tumor tissue was segmented into small pieces of approximately 20–30 mm^3 and transplanted subcutaneously into the right back of mice. When the tumor volume reached 150-200 mm^3, the mice were randomly divided into corresponding groups (9 mice in each group, female). Administered by gavage once daily for 4 weeks.

ALK = settings: cited from earlier work
MATE1 [2] = biological target: T1, MATE1 (Homo sapiens, UniProt Q96FL8); assay: Uptake inhibitor investigation in HEK293 cells expressing transporter; settings: HEK293 cells expressing MATE1, probe MPP, 10 μM
T1 sequence (Q96FL8 1-570): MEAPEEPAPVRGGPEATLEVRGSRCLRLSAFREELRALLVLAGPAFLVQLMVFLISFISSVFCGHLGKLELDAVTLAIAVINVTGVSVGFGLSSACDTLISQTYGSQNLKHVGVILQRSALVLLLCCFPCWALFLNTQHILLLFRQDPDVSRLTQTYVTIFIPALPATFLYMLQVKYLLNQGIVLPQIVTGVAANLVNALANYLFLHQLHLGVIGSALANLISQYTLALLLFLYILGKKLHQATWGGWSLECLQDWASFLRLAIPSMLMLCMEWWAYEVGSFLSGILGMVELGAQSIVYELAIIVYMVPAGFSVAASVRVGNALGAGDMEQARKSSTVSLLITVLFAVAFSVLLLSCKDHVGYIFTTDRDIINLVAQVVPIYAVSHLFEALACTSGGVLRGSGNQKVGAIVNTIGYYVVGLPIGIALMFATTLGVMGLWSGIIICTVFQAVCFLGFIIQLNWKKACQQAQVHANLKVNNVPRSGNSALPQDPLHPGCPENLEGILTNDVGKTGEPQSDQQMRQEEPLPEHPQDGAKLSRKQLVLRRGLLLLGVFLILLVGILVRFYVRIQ

MATE1 [3] = biological target: T1, MATE1; assay: Substrate investigation in HEK293 cells expressing transporter; assay type: in vitro ADME; design: No ESH8G27; host or cells: HEK293; settings: MPP 10 μM, no inhibitor, pre-test
OATP1B3 = assay: Uptake substrate investigation in HEK293 cells expressing transporter
OAT1 = assay: as above; settings: ATV 1 μM, no inhibitor, OAT1 pre-test
OAT3 = assay: as above; settings: ATV 1 μM, no inhibitor, OAT3 pre-test
OCT2 = biological target: T2, OCT2 (Homo sapiens, UniProt O15244); assay: as above; assay type: in vitro ADME; settings: 20 μM, Suppl. Table 11
T2 construct: No ESH9G27; host or cells: HEK293
T2 sequence (O15244 1-555): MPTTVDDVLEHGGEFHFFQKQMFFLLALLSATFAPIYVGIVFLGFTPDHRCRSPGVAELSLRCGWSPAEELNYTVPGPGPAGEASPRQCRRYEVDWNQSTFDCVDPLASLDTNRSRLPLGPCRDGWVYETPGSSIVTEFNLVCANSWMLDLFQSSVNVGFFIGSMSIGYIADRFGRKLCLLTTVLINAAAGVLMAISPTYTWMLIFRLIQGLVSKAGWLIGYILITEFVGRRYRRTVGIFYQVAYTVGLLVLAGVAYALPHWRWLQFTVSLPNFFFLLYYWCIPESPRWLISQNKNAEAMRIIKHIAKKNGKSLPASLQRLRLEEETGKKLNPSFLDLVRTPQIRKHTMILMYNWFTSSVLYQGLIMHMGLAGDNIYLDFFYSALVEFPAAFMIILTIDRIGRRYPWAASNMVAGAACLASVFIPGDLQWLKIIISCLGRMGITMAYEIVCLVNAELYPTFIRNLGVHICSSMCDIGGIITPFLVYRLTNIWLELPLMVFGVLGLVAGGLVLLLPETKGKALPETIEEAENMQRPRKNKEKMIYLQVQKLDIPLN

BCRP = biological target: T3, BCRP (Homo sapiens, UniProt Q9UNQ0); assay: ABC efflux transporter inhibitor test on Caco-2 cells (E3S efflux)
T3 sequence (Q9UNQ0 1-655): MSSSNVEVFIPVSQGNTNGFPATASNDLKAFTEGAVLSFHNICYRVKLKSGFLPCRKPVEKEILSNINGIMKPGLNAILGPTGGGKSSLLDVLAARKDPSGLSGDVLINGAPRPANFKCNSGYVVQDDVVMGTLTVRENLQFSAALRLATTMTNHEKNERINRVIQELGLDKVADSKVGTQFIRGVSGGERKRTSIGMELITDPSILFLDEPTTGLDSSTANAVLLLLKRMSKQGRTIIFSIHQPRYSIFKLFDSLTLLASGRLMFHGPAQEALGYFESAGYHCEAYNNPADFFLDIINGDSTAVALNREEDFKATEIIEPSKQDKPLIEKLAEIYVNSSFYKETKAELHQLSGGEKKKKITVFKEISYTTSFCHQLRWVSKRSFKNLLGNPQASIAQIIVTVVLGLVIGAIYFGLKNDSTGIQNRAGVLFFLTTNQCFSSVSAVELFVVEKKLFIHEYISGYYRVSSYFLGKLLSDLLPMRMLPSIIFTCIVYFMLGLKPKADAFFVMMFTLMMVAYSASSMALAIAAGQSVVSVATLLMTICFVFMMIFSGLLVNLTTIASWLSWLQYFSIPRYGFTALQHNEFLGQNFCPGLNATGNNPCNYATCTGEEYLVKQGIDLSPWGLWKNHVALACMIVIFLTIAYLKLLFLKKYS

[4] = MOCK293, ATV 1 μM, no inhibitor, OATP1B3 pre-test
[5] = OATP1B1-293 (so in the source), ATV 1 μM, no inhibitor, OATP1B3 pre-test

SMILES: Cc1cc(Nc2ncc(Cl)c(Nc3ccccc3S(=O)(=O)C(C)C)n2)c(OC(C)C)cc1C1CCNCC1 [Ceritinib]
tumor growth inhibition [1]: able to inhibit tumor growth
GI50 (ALK; in vitro enzymatic study against ALK, read-out: half-maximal growth inhibition concentration (GI50)): 0.15 nM
fold more potent against ALK than crizotinib (ALK; in vitro enzymatic study): ~ 20 fold

inhibition at 2 μM (MATE1 [2]): 123%
SMILES: CCc1nc(N)nc(N)c1-c1ccc(Cl)cc1 [Pyrimethamine]

SMILES: C[n+]1ccc(-c2ccccc2)cc1 [MPP]
Uptake transport activity, Mean (MATE1 [3]; MATE1-293): 1162.7 pmol/mg protein/min
Uptake transport activity, Repeat 1 / Repeat 2 (MATE1 [3]; MATE1-293): 942.2 pmol/mg protein/min and 1383.2 pmol/mg protein/min
Ratio of uptake transit activity (MATE1 [3]; MATE1-293 vs MOCK293): 6.86
Uptake transport activity, Net value (MATE1 [3]; MATE1-293 vs MOCK293): 993.3 pmol/mg protein/min
Uptake transport activity, Mean (MATE1 [3]; MOCK293): 169.4 pmol/mg protein/min
Uptake transport activity, Repeat 1 / Repeat 2 (MATE1 [3]; MOCK293): 163.5 pmol/mg protein/min and 175.3 pmol/mg protein/min

SMILES: CC(C)c1c(C(=O)Nc2ccccc2)c(-c2ccccc2)c(-c2ccc(F)cc2)n1CC[C@@H](O)C[C@@H](O)CC(=O)O [ATV]
Uptake transport activity, Mean (OATP1B3; MOCK293 (OATP1B3 set), 1 μM, Suppl. Table 11): 2.359 pmol/mg protein/min
Uptake transport activity, Mean (OATP1B3; [4]): 3.030 pmol/mg protein/min
Uptake transport activity, Repeat 1 / Repeat 2 (OATP1B3; [4]): 2.810 pmol/mg protein/min and 3.250 pmol/mg protein/min
Uptake transport activity, Mean (OATP1B3; [5]): 13.60 pmol/mg protein/min
Uptake transport activity, Repeat 1 / Repeat 2 (OATP1B3; [5]): 14.30 pmol/mg protein/min and 12.90 pmol/mg protein/min
Uptake transport activity, Net value (OATP1B3; transporter cells vs MOCK293, ATV 1 μM, no inhibitor, OATP1B3 pre-test): 10.6 pmol/mg protein/min
Uptake transport activity, Mean (OAT1; MOCK293): 3.393 pmol/mg protein/min
Uptake transport activity, Repeat 1 / Repeat 2 (OAT1; MOCK293): 3.281 pmol/mg protein/min and 3.505 pmol/mg protein/min
Uptake transport activity, Mean (OAT1; OATP1B1-293 (so in the source)): 31.40 pmol/mg protein/min
Uptake transport activity, Repeat 1 / Repeat 2 (OAT1; OATP1B1-293 (so in the source)): 36.42 pmol/mg protein/min and 26.39 pmol/mg protein/min
Uptake transport activity, Net value (OAT1; transporter cells vs MOCK293): 28.01 pmol/mg protein/min
Uptake transport activity, Mean (OAT3; MOCK293): 75.16 pmol/mg protein/min
Uptake transport activity, Repeat 1 / Repeat 2 (OAT3; MOCK293): 59.57 pmol/mg protein/min and 90.74 pmol/mg protein/min
Uptake transport activity, Mean (OAT3; OATP1B1-293 (so in the source)): 727.9 pmol/mg protein/min
Uptake transport activity, Repeat 1 / Repeat 2 (OAT3; OATP1B1-293 (so in the source)): 731.6 pmol/mg protein/min and 724.2 pmol/mg protein/min
Uptake transport activity, Net value (OAT3; transporter cells vs MOCK293): 652.7 pmol/mg protein/min

Uptake transport activity, Mean (OCT2; MOCK293 (OCT2 set)): 3.503 pmol/mg protein/min
Uptake transport activity, Mean (OCT2; OCT2-293): 82.72 pmol/mg protein/min
Ratio of uptake transit activity (OCT2; OCT2-293 vs MOCK293): 23.61
Uptake transport activity, Net value (OCT2; OCT2-293 vs MOCK293): 79.21 pmol/mg protein/min
SMILES: CN(C)C(=N)N=C(N)N [Metformin]

inhibition at 10 µM (BCRP; human, Caco-2 cells, probe E3S (10 µM), Exhaust inhibition rate (%), substrate E3S 10 µM, inhibitor 10 µM): 91.6%
Exhaust inhibition rate (%) (BCRP; substrate E3S 10 µM, inhibitor 10 µM): 91.7%
SMILES: COc1cc2c(cc1OC)CN(CCc1ccc(NC(=O)c3cccc4c(=O)c5cccc(OC)c5[nH]c34)cc1)CC2 [Elacridar, reference compound]

SMILES: C[C@]12CC[C@@H]3c4ccc(OS(=O)(=O)O)cc4CC[C@H]3[C@@H]1CCC2=O [E3S, reference compound]
Exhaust Ratio Mean (BCRP; E3S 10 µM alone, Caco-2): 20.54
